As usually defined, the half-life is how long it takes for the measured level to halve. Higher therefore signals slow loss.

The series is described as follows: physchem. To be noted: buffer, pH 7.68.

Procedure: 50 μL aliquots were removed periodically. […] Each aliquot was diluted with MeCN-d3 (150 μL), and a ^1H NMR spectrum was acquired (128 scans at 25° C., with acquisition starting 3 minutes after the aliquot was taken from the reaction).
The methods for determining the half-lives were approximately the same as described above, with variations in procedure depending on such variables as solubility and reaction rates.

Molecule `COc1cc(F)c(C(C)C)cc1-c1ccc(C(F)(F)F)cc1CN[C@@H](C)[C@H](OC(=O)OC(COP(=O)(O)O)COP(=O)(O)O)c1cc(C(F)(F)F)cc(C(F)(F)F)c1` [Example 47, (8R,9S)-8-[3,5-bis(trifluoromethyl)phenyl]-N-{[4′-fluoro-5′-isopropyl-2′-methoxy-4-(trifluoromethyl)biphenyl-2-yl]methyl}-1,1-dihydroxy-6-oxo-4-[(phosphonooxy)methyl]-2,5,7-trioxa-1λ^5-phosphadecan-9-aminium1-oxide chloride] gave a half-life of about 2.5 h.
